Laboratory results as given in patent US20070254847A1, “Pharmaceutical Composition Containing Steroidal Saponins, the Preparation Method and Use Thereof” (priority 2004, published 2007).
Marks after values point to notes of the source that are not given here.

System: acute myocardial infarction in rats
Test: Effect on acute myocardial infarction in rats (ligation of left anterior descending coronary artery)
Format: in vivo, Wistar rats
Experimental: Test 1 Effect of Pseudoprotogracillin (□) on Acute Myocardial Infarction in Rats:
Pseudoprotogracillin (□) obtained in example 4 was applied in relevant pharmacological tests as follows:
Wistar rats, each weighing 180˜220 g, were randomized into 3 groups, namely control group, pseudoprotogracillin group of high dose and pseudoprotogracillin group of low dose, each of which had 12 rats. The rats in the control group were administered by gastric infusion of distilled water. The other rats in test groups were administered by gastric infusion of the relevant medicinal liquid (prepared with distilled water), according to the high dose (3 mg/kg) or low dose (1.5 mg/kg) listed in following table for each group, respectively. Infusion was performed once a day and continued for one week. 1 hour after last administration, urethane of 1 g/kg was given to the rats for abdominal anesthesia. The animal was fixed on its back and its skin was cut open along the midline of its sternum, along the left edge of which an incision was made for the heart to be squzeezed out quickly. Ligation was immediately made at the root of the left anterior descending branch of its coronary artery before putting the heart back into its thorax, which was then closed by suture and spontaneous breathing was restored. The test was ended 3 hours after ligation and the heart was sliced transversely below the line of ligation. 5 slices were blue-stained with nitrotetrazolium and an multiple color pathological analyzer (MPIAS-500) was applied to measure the areas of normal myocardium and infarct myocardium at a fixed imaging distance and to observe the degree of myocardial infarction.

[1] = High dose 3 mg/kg, gastric infusion once a day for one week, 3 hours after ligation, X ± s
[2] = Low dose 1.5 mg/kg, gastric infusion once a day for one week, 3 hours after ligation, X ± s

Substance: 26-0-β-D-glucopyranosyl-3β, 26 glyco-25 (R)-Δ^5,20(22)-diene-furo-3-O-[α-L-Rhamnop yranosyl(1→2)]-[β-D-glucopyranosyl(1→3)]-β-D-glucopyranoside [pseudoprotogracillin (II)]
- Percentage of infarct area to the heart [1]: 20.74 ± 1.9 %
- Percentage of infarct area to ventricle [1]: 24.5 ± 2.6 %
- Weight of infraction [1]: 0.227 ± 0.032 g
- Area of infraction [2]: 91.3 ± 11.49* mm^2
- Percentage of infarct area to the heart [2]: 25.2 ± 2.3 %
- Percentage of infarct area to ventricle [2]: 28.1 ± 1.9 %
- Weight of infraction [2]: 0.241 ± 0.045 g
- Action on myocardium (in words) (high and low dose vs control group): obvious action to protect myocardium
